How the values were obtained:
skin melanocytes = assay: Chloasma model of guinea pig: pathomorphological observation of skin melanocytes; type: in vivo; parameters: Average gray level (melanocyte depth): scale not given here; conditions: 0.25% cream once a day, 30 days
Excerpt: According to the body weight, they were randomly divided into the model control group (applied cream matrix), blank control group (applied cream matrix), CLY-1 treatment group (applied 0.25% CLY-1 cream on the skin), CLY-2 treatment group (0.25% CLY-2 cream on the skin), CLY-3 treatment group (0.25% CLY-3 cream on the skin), CLY-4 treatment group (0.25% CLY-4 cream on the skin), CLY-5 treatment group (0.25% CLY-5 cream on the skin) CLY-8 treatment group (0.25% CLY-8 cream on the skin), CLY-11 treatment group (0.25% CLY-11 cream on the skin), CLY-19 treatment group (0.25% CLY-19 cream on the skin), CLY-36 treatment group (0.25% CLY-36 cream on the skin), CLY-39 treatment group (0.25% CLY-39 cream on the skin), positive treatment group (0.25% arbutin cream on the skin), 6 in each group. In addition to the blank control group, all guinea pigs in the other groups were injected with 20 mg/ml progesterone injection (7.5 mg/kg) into the muscle at the root of the hind leg, once a day, for 30 consecutive days to establish the chloasma model. […] After modeling, the guinea pigs in the model control group, blank control group, each CLY series treatment group, and positive treatment group were treated with corresponding cream on the back for intervention, once a day, for 30 consecutive days.
Took 1 piece of spare skin tissue from each of all guinea pigs, about 2 cm×1 cm, 10% paraformaldehyde fixation, pathological tissue detection, immunohistochemical staining, observation of melanocyte staining and number, and judgment of positive cells according to the literature: none, 0 point<15%, 0.5 points<30%, 1 point; >30%, 2 points. Observed 5 visual fields in each slice, found out the positive target with brown reaction in the cytoplasm of skin epidermis and accessory epithelial cells, and used BX50F4 Beihang pathological image analysis system for quantitative analysis to obtain the average area, the ratio of target area to statistical field area (areal density), the ratio of target number to statistical field area (number density), the average gray level, the average optical density and the integrated optical density of each guinea pig's 5 visual fields of melanin positive target.
SPSS16.0 software was used for statistics. The measurement data were expressed by mean±standard deviation (x±s). The comparison between multiple groups was performed by one-way ANOVA, and the comparison between groups was performed by t-test. P<0.05 was statistically significant.

[1] = system: skin hair follicles and sebaceous glands of mice; assay: Mouse hair loss model: histopathological grading of skin hair follicles and sebaceous glands; type: in vivo, C57BL/6 mice; conditions: external 2% tincture, 60 days, 6 mice per group; for number of mice with hair follicle and sebaceous gland grade +++: grade +++ (most severe); for number of mice with hair follicle and sebaceous gland grade ±: grade ± (lesions limited); for number of mice with hair follicle and sebaceous gland grade −: grade − (normal structure)
Excerpt: The experimental mice were divided into the negative control group (external use of 60% ethanol), model group (external use of 60% ethanol), positive control group (external use of 2% minoxidil tincture), CLY-1 external treatment group (external use of 2% CLY-1 tincture), CLY-2 external treatment group (external use of 2% CLY-2 tincture), CLY-3 external treatment group (external use of 2% CLY-3 tincture), CLY-4 external treatment group (external use of 2% CLY-4 tincture), CLY-8 external treatment group (external use of 2% CLY-8 tincture) CLY-11 external treatment group (2% CLY-11 tincture), CLY-19 external treatment group (2% CLY-19 tincture), CLY-36 external treatment group (2% CLY-36 tincture), and CLY-39 external treatment group (2% CLY-39 tincture). There were 6 animals in each group, half male and half female. An area of 4 cm×5 cm from the back of experimental mice with hair removed was selected, and the hair removal area was painted yellow with 3% picric acid solution to determine the observation area of the hair removal experiment. In addition to the negative control group, mice in other groups were injected subcutaneously with testosterone propionate injection [8 ml/(kg·d)] at the back of the neck, once a day, for 60 consecutive days, to establish the model of androgenic alopecia (AGA). At the same time of modeling, the rats in the corresponding drug group were smeared with drugs on the observation area of the back at the rate of 1 ml/(piece·time), twice a day, with an interval of 2 hours. The normal control group and the model control group were smeared with the excipient (60% ethanol solution), 1 ml/(one time), twice a day, for 60 consecutive days.
10 hairs were extracted from the observation area on the back of each mouse every 15 days after administration, and the hair length was measured with a vernier caliper. After 60 days of administration, the skin of the experimental observation area was taken for routine tissue dehydration, paraffin embedding, HE staining, and light microscopy to observe the histopathological changes of mouse skin hair follicles and sebaceous glands. Semi-quantitative analysis was performed for each group. The grading criteria are as follows: the normal structure of dermal tissue cells, subcutaneous hair follicles, and sebaceous glands is marked as […]: no hyperplasia of dermal tissue is found, the lesions of hair follicles and sebaceous glands are limited, and no inflammation is found under the skin is marked as “+”: no obvious hyperplasia of dermal tissue is found, and the follicles are obviously cystic. No obvious hyperplasia of sebaceous glands is found, and no inflammation is found under the skin is marked as “+”: the dermal tissue has segmental hyperplasia, which is not obvious, A small number of hair follicles have cystic changes, and the sebaceous glands have mild hyperplasia and hypertrophy. There is no obvious inflammation under the skin, which is marked as “++”: the dermal tissue cells of the skin have different degrees of segmental hyperplasia, and some hair follicles have cystic changes, showing uneven size of hair follicles, and no cells around. The sebaceous glands have hyperplasia, and the nuclei in the proliferative glands are few. A few subcutaneous mild inflammatory hyperplasia is marked as “+++”.

| SMILES | Area density of melanocytes (skin melanocytes) | Area of melanocytes (skin melanocytes) | Average gray level (melanocyte depth) (skin melanocytes) | Average optical density (melanocyte depth) (skin melanocytes) | Integrated optical density (melanocyte depth) (skin melanocytes) | Number density of melanocytes (skin melanocytes) | Number of melanocytes (skin melanocytes) | number of mice with hair follicle and sebaceous gland grade +++ [1] | number of mice with hair follicle and sebaceous gland grade ++ [1] | number of mice with hair follicle and sebaceous gland grade + [1] | number of mice with hair follicle and sebaceous gland grade ± [1] | number of mice with hair follicle and sebaceous gland grade − [1] |
| --- | --- | --- | --- | --- | --- | --- | --- | --- | --- | --- | --- | --- |
| O=C(c1ccc(-c2ccccc2Cl)cc1)N(c1ncccc1Cl)[C@@H]1CCCNC1 [CLY-36] | 0.007 ± 0.004 | 495.32 ± 79.43 um2 | 0.47 ± 0.07 | 11.53 ± 1.22 | 97.62 ± 9.91 | 2.67 ± 1.38 | 1.98 ± 0.59 | 0 | 2 | 1 | 3 | 0 |
| Nc1ccccc1-c1ccc(C(=O)N(c2ncccc2Cl)[C@@H]2CCCNC2)cc1 [CLY-39] | 0.006 ± 0.003 | 458.06 ± 76.32 um2 | 0.47 ± 0.07 | 11.06 ± 1.17 | 101.36 ± 9.72 | 2.03 ± 1.24 | 1.39 ± 0.32 | 0 | 1 | 2 | 3 | 0 |

— patent US20240300945A1, “CLY SERIES COMPOUND, PREPARATION METHOD THEREFOR AND USE THEREOF IN PREPARATION OF DRUGS” (NANJING WELLBEST PHARMACEUTICAL CO., LTD, priority 2021, published 2024)
